# Data as given in US12134769B2, “MicroRNA-198 as a tumor suppressor in ovarian cancer” (Baylor College of Medicine, priority 2011, dated 2024).
# “And” between values parts separate entries of the source, which are not always exact repeats. Identical values can stand only once.
# Columns and labels:
# VCP 3′UTR = experiment: Dual-luciferase reporter assay, VCP 3′UTR; assay type: cell-based; settings: following miR-198 overexpression; firefly/Renilla ratio, 24 h
# Excerpt: (§1) For MSLN, six constructs were generated: 400 or 600 bp segments containing the WT sequence or specific 3-nucleotide mutations in the seed region of each miR-198 binding site were synthesized by GenScript and subcloned into the pEZX-MT01 3′UTR construct from Genecopoeia at Xba1 and BamH1 restriction sites such that they were inserted after the luciferase gene (FIG. 10). The same process was used for the VCP reporter constructs containing the full-length VCP 3′UTR (FIG. 10).
# (§2) Dual luciferase assays were performed according to the manufacturer's instruction. Luciferase expression analysis was performed at 24 h using the Dual-luciferase kit (Promega) and Sirius Luminometer (Berthold Detection System). Results are presented as the ratio of firefly to Renilla luciferase activities, normalized to controls.
# MSLN CDS = experiment: Dual-luciferase reporter assay, MSLN CDS constructs; assay type: cell-based, human; settings: in the presence of miR-198
# Excerpt: as §1, §2
# AsPC1 cells [1] = experiment: Cell proliferation assay (MTT); assay type: cell-based, human; settings: AsPC1-miR-198 cells
# Description: (§3) Cells were seeded in 96-well plates (2×10^3 cells per well) and serum starved for 24 h prior to differential FBS additions. 3-(4,5-Dimethylthiazol-2-yl)-2,5-diphenyltetrazolium bromide (MTT) was used to measure cell proliferation as previously described (Bharadwaj et al., 2011b).
# (§4) Cell growth was assessed using MTT at 2, 3, 4, 5 and 6 days after releasing from starvation (not all data shown). Briefly, twenty microliters of MTT reagent mixed with 100 μL of growth medium was added to each well and incubated at 37° C. for 2 h. Cells were then lysed overnight using 100 μl of lysis buffer consisting of 20% SDS in 1:1 dimethyl formamide; H2O solution. Absorbance was recorded at 520 nm with an EL-800 universal microplate reader (Bio-Tek Instruments). Relative proliferation was calculated by dividing the reading by a Day 0 reading taken prior to serum starvation.
# MIA-MSLN cells [2] = experiment: Cell proliferation assay (MTT); assay type: cell-based, human; settings: MIA-MSLN-miR-198 cells, after 5 days
# Description: as §3, §4
# MIA-MSLN cells [3] = experiment: Apoptosis assay (TUNEL, caspase 3 western) after TNF-α; assay type: cell-based, human
# Description: (§5) Apoptosis induction was determined using western blotting for Caspase 3 cleavage and confirmed by labeling DNA breaks using a terminal deoxynucleotidyltransferase dUTP nick end labeling (TUNEL) assay with the APO-DIRECT Kit (BD Biosciences) following 96 h of treatment (24 h serum starvation followed by 72 h of treatment with 20 ng/ml of TNF-α). Briefly, cells were plated in either 10% FBS media or serum-starved for 96 h, at which time 1×10^6 cells were harvested using trypsin-EDTA. After centrifugation, the pellets were washed twice with PBS, then resuspended in 1% paraformaldehyde in PBS and incubated on ice for 45 minutes. After several washes, the cell pellet again was resuspended in PBS/ethanol, incubated on ice for 30 minutes, and stored at −20° C. Cell samples were then pelleted, washed, and resuspended in 50 μL of DNA labeling solution containing a reaction buffer, terminal deoxynucleotidyl transferase enzyme, FITC-labeled deoxyuridine triphosphate nucleotides, and distilled water. After a 60-minute incubation at 37° C., cells were again washed, pelleted, and resuspended in 500 μl of propidium iodine/RNase staining buffer. Samples were then analyzed by flow cytometry (fluorescence-activated cell sorting) using a FACSCalibur (Becton Dickinson, Franklin Lakes, NJ). Data was further analyzed using the software FLOWJOW ver. 6.1.1 (Tree Star Inc.).
# AsPC1 cells [4] = experiment: Apoptosis assay (TUNEL) after TNF-α; assay type: cell-based, human; settings: AsPC1-miR-198 cells, TUNEL after TNF-α treatment
# Description: as §5
# MIA-V cells = experiment: Apoptosis assay (TUNEL) after TNF-α; assay type: cell-based, human; settings: TUNEL after TNF-α treatment
# Description: as §5
# MIA-MSLN cells [5] = experiment: Subcutaneous pancreatic cancer mouse model; assay type: in vivo, nude mice
# Description: (§6) All animal procedures were conducted under the guidelines approved by the Institutional Animal Care and Use Committee (IACUC). Cells (3×10^6) were inoculated into the right flank (s.c. model) or into the pancreas (orthotopic model) of 5 to 6-week-old male nude mice (NCI-Charles River) as previously described (Li et al., 2007). Tumor size was measured using a digital caliper and tumor volume was determined with the following formula: tumor volume (mm^3)=[length (mm)]×[width (mm)]2×0.52. For the orthotopic model, after 4 weeks all surviving mice were euthanized and evaluated macroscopically for the presence of orthotopic tumor and metastases in the abdominal cavity. Tumor spread was further visualized using a fluorescent filter to view GFP expression. The tumor nodules were explanted, counted, and weighed. Tumor tissues were stored in RNAse Later solution (Ambion) in −80° for subsequent RNA/miRNA isolation and analysis.
# MIA-MSLN cells [6] = experiment: Orthotopic pancreatic cancer mouse model; assay type: in vivo, nude mice
# Description: as §6
# HPDE cells = experiment: Migration assay; assay type: cell-based; settings: 72 h
# Description: Cell migration was determined with a modified Boyden chamber assay as described previously (Li et al., 2008). For invasion assays, Matrigel basement membrane matrix (BD Biosciences) was used by adding 100 ul of 1 mg/ml Matrigel to the migration chamber inserts prior to plating of the cells (Li et al., 2008, Bharadwaj).
# AsPC1 cells [7] = experiment: Monolayer wound healing assay; assay type: cell-based, human; settings: miR-198 overexpressed, all serum conditions tested
# Excerpt: (§7) For wound healing assay, wounds were created in confluent monolayer of cells with a sterile pipette tip in either 0%, 0.2%, 2%, or 5% FBS media, and wound healing was observed within the scrape line at different time points; representative fields for each cell line were photographed (Li et al., 2008, Bharadwaj).
# MIA-MSLN cells [8] = experiment: Monolayer wound healing assay; assay type: cell-based, human; settings: miR-198 overexpressed, all serum conditions tested
# Excerpt: as §7
substance,measurement,setting,value
"miR-198: microRNA-198, SEQ ID NO: 1 gguccagaggggagauagg; used as transfected precursors (Ambion) or Lenti-miR stable overexpression (GGUCCAGAGGGGAGAUAGG; listed as RNA, chemistry not given here; listed as Homo sapiens)",decrease in VCP 3′UTR luciferase activity,VCP 3′UTR,~70%
same,"decrease in firefly luciferase expression, MSLN CDS site 2 WT construct",MSLN CDS,almost completely
same,"decrease in firefly luciferase expression, MSLN CDS site 3 WT construct",MSLN CDS,~70%
same,"decrease in firefly luciferase expression, MSLN CDS site 1 construct",MSLN CDS; not statistically significant,slight reduction
same,proliferation rates vs AsPC1-miR-Ctrl cells,AsPC1 cells [1],significantly lower proliferation rates
same,lower proliferation rates than MIA-MSLN and MIA-MSLN-miR-Ctrl cells,MIA-MSLN cells [2],approximately 3 fold
same,increase in number of cells undergoing apoptosis over controls,"MIA-MSLN cells [3]; MIA-MSLN-miR-198 cells, TUNEL after TNF-α treatment",> 60%
same,caspase 3 cleavage,"MIA-MSLN cells [3]; overexpression of miR-198 in MIA-MSLN cells, western blot",results in caspase 3 cleavage
same,increase in number of cells undergoing apoptosis over controls,AsPC1 cells [4],> 90%
same,apoptotic cells,MIA-V cells,~75%
same,mice that developed tumors,MIA-MSLN cells [5]; s.c. MIA-MSLN-miR-198 cells,3 of 9
same,average tumor volume,"MIA-MSLN cells [5]; s.c. MIA-MSLN-miR-198 cells, day 45 post injection, the three mice with tumors",37 mm^3 and 36 mm^3
same,mice with no signs of tumor development,"MIA-MSLN cells [5]; s.c. miR-198 overexpressing cells, tumor-free for 45 days",6/9
same,first measurable tumors,"MIA-MSLN cells [5]; s.c., the three mice that presented small tumors",35 day post injection
same,average primary tumor weight,"MIA-MSLN cells [6]; orthotopic MIA-MSLN-miR-198 cells, after 4 weeks",0.06 g
same,metastases,"MIA-MSLN cells [6]; orthotopic MIA-MSLN-miR-198 injected mice, 8 mice",Four of the eight mice had no metastases
same,"jaundice, weight loss, and abdominal ascitic fluid","MIA-MSLN cells [6]; orthotopic, mice injected with high miR-198 cells",none of the mice injected with high miR-198 cells had these symptoms
same,migration,HPDE cells,did not seem to have an effect
same,wound closure rate,AsPC1 cells [7],reduced wound closure rate
same,wound closure rate,MIA-MSLN cells [8],reduced wound closure rate
